# Bridge positions count the residues as written; N and C are the ends. Square brackets hold non-standard residues; d marks the D form. Peptide text beside a SMILES is read from it.
# System: H1N1 A/PR/8/1934
# Details: A/PR/8/1934, 48 h, 1 μM
smiles,measurement,value
"CC[C@@H](C)[C@H]1NC(=O)[C@@H](Cc2ccccc2)NC(=O)[C@@H]([C@H](C)O)NC(=O)[C@@H](Cc2ccccc2)NC(=O)[C@@H](Cc2c[nH]c3ccccc23)NC(=O)[C@@H](Cc2c[nH]c3ccccc23)NC(=O)[C@H](NC(=O)[C@H](CCCCN)NC(=O)[C@H](CCCCN)NC(=O)[C@H](CCCNC(=N)N)NC(=O)[C@@H](N)CCCNC(=N)N)CSSC[C@H](C(=O)O)NC(=O)CNC1=O [PSP VI A6, H RRKKcwwftfiGc-OH] (H-RRKK[dC][dW][dW][dF][dT][dF][dI]G[dC]-OH; disulfide 5-13)",% Inhibition,69%
"CC[C@@H](C)[C@H]1NC(=O)[C@@H](Cc2ccccc2)NC(=O)[C@@H]([C@H](C)O)NC(=O)[C@@H](Cc2ccccc2)NC(=O)[C@@H](Cc2c[nH]c3ccccc23)NC(=O)[C@@H](Cc2c[nH]c3ccccc23)NC(=O)[C@H](NC(=O)[C@H](CCCCN)NC(=O)[C@H](CCCCN)NC(=O)[C@H](CCCNC(=N)N)NC(=O)[C@@H](N)CCCNC(=N)N)CSSC[C@H](C(=O)O)NC(=O)[C@@H](Cc2c[nH]cn2)NC1=O [PSP VI A7, H-RRKKcwwftfihc-OH] (H-RRKK[dC][dW][dW][dF][dT][dF][dI][dH][dC]-OH; disulfide 5-13)",% Inhibition,38.5%
"CC[C@@H](C)[C@H]1NC(=O)[C@@H](Cc2ccccc2)NC(=O)[C@@H]([C@H](C)O)NC(=O)[C@@H](Cc2ccccc2)NC(=O)[C@@H](Cc2c[nH]c3ccccc23)NC(=O)[C@@H](Cc2c[nH]c3ccccc23)NC(=O)[C@H](NC(=O)[C@H](CCCCN)NC(=O)[C@H](CCCCN)NC(=O)[C@H](CCCNC(=N)N)NC(=O)[C@@H](N)CCCNC(=N)N)CSSC[C@H](C(=O)O)NC(=O)[C@@H]([C@H](C)CC)NC1=O [PSP VI A8, H-RRKKcwwftfiic-OH] (H-RRKK[dC][dW][dW][dF][dT][dF][dI][dI][dC]-OH; disulfide 5-13)",% Inhibition,49%
"CC[C@@H](C)[C@H]1NC(=O)[C@@H](Cc2ccccc2)NC(=O)[C@@H]([C@H](C)O)NC(=O)[C@@H](Cc2ccccc2)NC(=O)[C@@H](Cc2c[nH]c3ccccc23)NC(=O)[C@@H](Cc2c[nH]c3ccccc23)NC(=O)[C@H](NC(=O)[C@H](CCCCN)NC(=O)[C@H](CCCCN)NC(=O)[C@H](CCCNC(=N)N)NC(=O)[C@@H](N)CCCNC(=N)N)CSSC[C@H](C(=O)O)NC(=O)[C@@H](CCCCN)NC1=O [PSP VI A9, H-RRKKcwwftfikc-OH] (H-RRKK[dC][dW][dW][dF][dT][dF][dI][dK][dC]-OH; disulfide 5-13)",% Inhibition,11%
"CC[C@@H](C)[C@H]1NC(=O)[C@@H](Cc2ccccc2)NC(=O)[C@@H]([C@H](C)O)NC(=O)[C@@H](Cc2ccccc2)NC(=O)[C@@H](Cc2c[nH]c3ccccc23)NC(=O)[C@@H](Cc2c[nH]c3ccccc23)NC(=O)[C@H](NC(=O)[C@H](CCCCN)NC(=O)[C@H](CCCCN)NC(=O)[C@H](CCCNC(=N)N)NC(=O)[C@@H](N)CCCNC(=N)N)CSSC[C@H](C(=O)O)NC(=O)[C@@H](CC(C)C)NC1=O [PSP VI A10, H-RRKKcwwftfilc-OH] (H-RRKK[dC][dW][dW][dF][dT][dF][dI][dL][dC]-OH; disulfide 5-13)",% Inhibition,48%
"CC[C@@H](C)[C@H]1NC(=O)[C@@H](Cc2ccccc2)NC(=O)[C@@H]([C@H](C)O)NC(=O)[C@@H](Cc2ccccc2)NC(=O)[C@@H](Cc2c[nH]c3ccccc23)NC(=O)[C@@H](Cc2c[nH]c3ccccc23)NC(=O)[C@H](NC(=O)[C@H](CCCCN)NC(=O)[C@H](CCCCN)NC(=O)[C@H](CCCNC(=N)N)NC(=O)[C@@H](N)CCCNC(=N)N)CSSC[C@H](C(=O)O)NC(=O)[C@@H](CCSC)NC1=O [PSP VI A11, H-RRKKcwwftfimc-OH] (H-RRKK[dC][dW][dW][dF][dT][dF][dI][dM][dC]-OH; disulfide 5-13)",% Inhibition,79%
"CC[C@@H](C)[C@H]1NC(=O)[C@@H](Cc2ccccc2)NC(=O)[C@@H]([C@H](C)O)NC(=O)[C@@H](Cc2ccccc2)NC(=O)[C@@H](Cc2c[nH]c3ccccc23)NC(=O)[C@@H](Cc2c[nH]c3ccccc23)NC(=O)[C@H](NC(=O)[C@H](CCCCN)NC(=O)[C@H](CCCCN)NC(=O)[C@H](CCCNC(=N)N)NC(=O)[C@@H](N)CCCNC(=N)N)CSSC[C@H](C(=O)O)NC(=O)[C@H]2CCCN2C1=O [PSP VI A13, H-RRKKcwwftfipc-OH] (H-RRKK[dC][dW][dW][dF][dT][dF][dI][dP][dC]-OH; disulfide 5-13)",% Inhibition,42%
"CC[C@@H](C)[C@H]1NC(=O)[C@@H](Cc2ccccc2)NC(=O)[C@@H]([C@H](C)O)NC(=O)[C@@H](Cc2ccccc2)NC(=O)[C@@H](Cc2c[nH]c3ccccc23)NC(=O)[C@@H](Cc2c[nH]c3ccccc23)NC(=O)[C@H](NC(=O)[C@H](CCCCN)NC(=O)[C@H](CCCCN)NC(=O)[C@H](CCCNC(=N)N)NC(=O)[C@@H](N)CCCNC(=N)N)CSSC[C@H](C(=O)O)NC(=O)[C@@H](CCC(N)=O)NC1=O [PSP VI A14, H-RRKKcwwftfiqc-OH] (H-RRKK[dC][dW][dW][dF][dT][dF][dI][dQ][dC]-OH; disulfide 5-13)",% Inhibition,85%
"CC[C@@H](C)[C@H]1NC(=O)[C@@H](Cc2ccccc2)NC(=O)[C@@H]([C@H](C)O)NC(=O)[C@@H](Cc2ccccc2)NC(=O)[C@@H](Cc2c[nH]c3ccccc23)NC(=O)[C@@H](Cc2c[nH]c3ccccc23)NC(=O)[C@H](NC(=O)[C@H](CCCCN)NC(=O)[C@H](CCCCN)NC(=O)[C@H](CCCNC(=N)N)NC(=O)[C@@H](N)CCCNC(=N)N)CSSC[C@H](C(=O)O)NC(=O)[C@@H](CCCNC(=N)N)NC1=O [PSP VI A15, H-RRKKcwwftfirc-OH] (H-RRKK[dC][dW][dW][dF][dT][dF][dI][dR][dC]-OH; disulfide 5-13)",% Inhibition,92%
"CC[C@@H](C)[C@H]1NC(=O)[C@@H](Cc2ccccc2)NC(=O)[C@@H]([C@H](C)O)NC(=O)[C@@H](Cc2ccccc2)NC(=O)[C@@H](Cc2c[nH]c3ccccc23)NC(=O)[C@@H](Cc2c[nH]c3ccccc23)NC(=O)[C@H](NC(=O)[C@H](CCCCN)NC(=O)[C@H](CCCCN)NC(=O)[C@H](CCCNC(=N)N)NC(=O)[C@@H](N)CCCNC(=N)N)CSSC[C@H](C(=O)O)NC(=O)[C@@H](CO)NC1=O [PSP VI A16, H-RRKKcwwftfisc-OH] (H-RRKK[dC][dW][dW][dF][dT][dF][dI][dS][dC]-OH; disulfide 5-13)",% Inhibition,74%
"CC[C@@H](C)[C@H]1NC(=O)[C@@H](Cc2ccccc2)NC(=O)[C@@H]([C@H](C)O)NC(=O)[C@@H](Cc2ccccc2)NC(=O)[C@@H](Cc2c[nH]c3ccccc23)NC(=O)[C@@H](Cc2c[nH]c3ccccc23)NC(=O)[C@H](NC(=O)[C@H](CCCCN)NC(=O)[C@H](CCCCN)NC(=O)[C@H](CCCNC(=N)N)NC(=O)[C@@H](N)CCCNC(=N)N)CSSC[C@H](C(=O)O)NC(=O)[C@@H]([C@H](C)O)NC1=O [PSP VI A17, H-RRKKcwwftfitc-OH] (H-RRKK[dC][dW][dW][dF][dT][dF][dI][dT][dC]-OH; disulfide 5-13)",% Inhibition,27%
"CC[C@@H](C)[C@H]1NC(=O)[C@@H](Cc2ccccc2)NC(=O)[C@@H]([C@H](C)O)NC(=O)[C@@H](Cc2ccccc2)NC(=O)[C@@H](Cc2c[nH]c3ccccc23)NC(=O)[C@@H](Cc2c[nH]c3ccccc23)NC(=O)[C@H](NC(=O)[C@H](CCCCN)NC(=O)[C@H](CCCCN)NC(=O)[C@H](CCCNC(=N)N)NC(=O)[C@@H](N)CCCNC(=N)N)CSSC[C@H](C(=O)O)NC(=O)[C@@H](C(C)C)NC1=O [PSP VI A18, H-RRKKcwwftfivc-OH] (H-RRKK[dC][dW][dW][dF][dT][dF][dI][dV][dC]-OH; disulfide 5-13)",% Inhibition,53%
